Test system: KRAS patient-derived spheroids with HUVEC/MSC, viability
Assay: Anticancer human tumor 941728-121-R-J1-PDC patient-derived lung adenocarcinoma cell line growth inhibition [KRAS2]
Conditions: for IC50: curve of first compound; for viability, T/C: stronger effect = lower value
Method in brief: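 Combination screen of spheroid viability in tumor-cell co-cultures with endothelial (HUVEC) and mesenchymal stem cell stroma. Each agent was tested in half-log dilutions, topping at clinical Cmax or at 10 microM without a known Cmax.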

[1] = second compound 0.1 µM, first compound 0.0316 µM
[2] = second compound 0.1 µM, first compound 0.1 µM
[3] = second compound 0.1 µM, first compound 0.316 µM
[4] = second compound 0.1 µM, first compound 1 µM
[5] = second compound 0.1 µM, first compound 3.16 µM
[6] = second compound 0.1 µM, first compound 10 µM
[7] = second compound 0.316 µM, first compound 0.0316 µM
[8] = second compound 0.316 µM, first compound 0.1 µM
[9] = second compound 0.316 µM, first compound 0.316 µM
[10] = second compound 0.316 µM, first compound 1 µM
[11] = second compound 0.316 µM, first compound 3.16 µM
[12] = second compound 0.316 µM, first compound 10 µM
[13] = second compound 1 µM, first compound 0.0316 µM
[14] = second compound 1 µM, first compound 0.1 µM
[15] = second compound 1 µM, first compound 0.316 µM
[16] = second compound 1 µM, first compound 1 µM
[17] = second compound 1 µM, first compound 3.16 µM
[18] = second compound 1 µM, first compound 10 µM
[19] = second compound 3.16 µM, first compound 0.0316 µM
[20] = second compound 3.16 µM, first compound 0.1 µM
[21] = second compound 3.16 µM, first compound 0.316 µM
[22] = second compound 3.16 µM, first compound 1 µM
[23] = second compound 3.16 µM, first compound 3.16 µM
[24] = second compound 3.16 µM, first compound 10 µM
[25] = second compound 10 µM, first compound 0.0316 µM
[26] = second compound 10 µM, first compound 0.1 µM
[27] = second compound 10 µM, first compound 0.316 µM
[28] = second compound 10 µM, first compound 1 µM
[29] = second compound 10 µM, first compound 3.16 µM
[30] = second compound 10 µM, first compound 10 µM
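Also: spheroids exposed to agents for seven days before readout.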

SMILES	IC50 (second compound 0.1 µM)	IC50 (second compound 0.316 µM)	IC50 (second compound 1 µM)	IC50 (second compound 3.16 µM)	viability, T/C [1]	viability, T/C [2]	viability, T/C [3]	viability, T/C [4]	viability, T/C [5]	viability, T/C [6]	viability, T/C [7]	viability, T/C [8]	viability, T/C [9]	viability, T/C [10]	viability, T/C [11]	viability, T/C [12]	viability, T/C [13]	viability, T/C [14]	viability, T/C [15]	viability, T/C [16]	further results
CC(C)NCC(C(=O)N1CCN(c2ncnc3c2C(C)CC3O)CC1)c1ccc(Cl)cc1 (stereo not given) + CNCc1ccccc1-c1csc(C(C)Nc2nc(C)nc3cc(OC)c(OC)cc23)c1	218 nM	< 31.6 nM	< 31.6 nM	< 31.6 nM	68.6%	57%	47.9%	33.3%	28.1%	16.6%	42.3%	42.9%	29.1%	24.7%	22.4%	12.4%	23.9%	33.2%	21.2%	16.1%	IC50 (second compound 10 µM): < 31.6 nM; viability, T/C [17]: 6.11%; viability, T/C [18]: 4.4%; viability, T/C [19]: 0.08%; viability, T/C [20]: 0.12%; viability, T/C [21]: 0.11%; viability, T/C [22]: 0.08%; viability, T/C [23]: 0.04%; viability, T/C [24]: 0.16%; viability, T/C [25]: 0.16%; viability, T/C [26]: 0.15%; viability, T/C [27]: 0.12%; viability, T/C [28]: 1.66%; viability, T/C [29]: 0.11%; viability, T/C [30]: 0.25%
Cn1nccc1Nc1nccc(-c2cc3c(s2)C(C)(C)N(CCN2CCOCC2)C3=O)n1 + CC1OCC2(CCN(c3cnc(Sc4ccnc(N)c4Cl)c(N)n3)CC2)C1N	47.7 nM	< 31.6 nM	< 31.6 nM	< 31.6 nM	53.7%	43.2%	38.1%	36%	29.2%	35.1%	45.1%	41.5%	34.3%	34.9%	25.8%	25%	38.2%	39.2%	31.3%	30%	IC50 (second compound 10 µM): < 31.6 nM; viability, T/C [17]: 23.8%; viability, T/C [18]: 18.9%; viability, T/C [19]: 33.5%; viability, T/C [20]: 30.4%; viability, T/C [21]: 30.9%; viability, T/C [22]: 24.4%; viability, T/C [23]: 16.3%; viability, T/C [24]: 18.3%; viability, T/C [25]: 29%; viability, T/C [26]: 29.5%; viability, T/C [27]: 21.5%; viability, T/C [28]: 15.6%; viability, T/C [29]: 10.8%; viability, T/C [30]: 13.1%
COc1cc2nccc(Oc3ccc(NC(=O)C4(C(=O)Nc5ccc(F)cc5)CC4)cc3)c2cc1OC + CNCc1ccccc1-c1csc(C(C)Nc2nc(C)nc3cc(OC)c(OC)cc23)c1	85.5 nM	< 31.6 nM	< 31.6 nM	< 31.6 nM	59.8%	46.5%	42.2%	39.7%	19.2%	39.2%	39%	34.5%	28.8%	21.3%	12.4%	25.4%	16.1%	21%	10.2%	5.77%	IC50 (second compound 10 µM): < 31.6 nM; viability, T/C [17]: 2.51%; viability, T/C [18]: 8.64%; viability, T/C [19]: 0.1%; viability, T/C [20]: 0.43%; viability, T/C [21]: 0.05%; viability, T/C [22]: 0.1%; viability, T/C [23]: 0.03%; viability, T/C [24]: 0.12%; viability, T/C [25]: 0.36%; viability, T/C [26]: 0.07%; viability, T/C [27]: 0.08%; viability, T/C [28]: 0.08%; viability, T/C [29]: 0.31%; viability, T/C [30]: 0.21%
CC1OCC2(CCN(c3cnc(Sc4ccnc(N)c4Cl)c(N)n3)CC2)C1N (stereo not given) + C=CC(=O)N1CCN(c2nc(OCC3CCCN3C)nc3c2CCN(c2cccc4cccc(C)c24)C3)CC1CC#N	< 31.6 nM	< 31.6 nM	< 31.6 nM	< 31.6 nM	31.4%	28.9%	25.6%	26.3%	25.4%	20.6%	32.8%	30.8%	28%	26.9%	25.1%	23.7%	32.8%	34.8%	32.7%	28.2%	IC50 (second compound 0.0316 µM): < 31.6 nM; viability, T/C (second compound 0.0316 µM, first compound 0.0316 µM): 32.3%; viability, T/C (second compound 0.0316 µM, first compound 0.1 µM): 28.9%; viability, T/C (second compound 0.0316 µM, first compound 0.316 µM): 25.4%; viability, T/C (second compound 0.0316 µM, first compound 1 µM): 26.4%; viability, T/C (second compound 0.0316 µM, first compound 3.16 µM): 23.6%; viability, T/C (second compound 0.0316 µM, first compound 10 µM): 18.4%; viability, T/C [17]: 29.1%; viability, T/C [18]: 28.4%; viability, T/C [19]: 4.61%; viability, T/C [20]: 10.1%; viability, T/C [21]: 4.45%; viability, T/C [22]: 4.43%; viability, T/C [23]: 4.99%; viability, T/C [24]: 9.3%

From PubChem BioAssay AID1963862 (Molecular Pharmacology Branch, DTP, NCI, 2024)
